Measurements as given in patent US6248309A, “Gums containing antimicrobial agents” (priority 1999, dated 2001).
Several values for one entry are separate records, joined by “and”; a condition that tells them apart may be missing. Identical values can stand only once. Counter-ions that a name gives are not always drawn. Like-named read-outs stand apart in the source and are kept apart here.

Tests used:
[1] = assay type: in vivo, human volunteers
Description: The saliva samples were refrigerated until analysis.
To either 2.7 grams unchewed gum sample or the remaining bolus of chewed gum, was added 3.0 millileters of internal standard (Hesperetin) in methanol, 6.0 milliliters hexane and 3.0 milliliters distilled water. Samples were homogenized using a Polytron Homogenizer model PT10/35 from Brinkmann Instruments, fitted with a PTA10TS generator for at least 30 seconds on ice, or until no lumps of non-dispersed gum were visible in the sample. Samples were then centrifuged in a Dynac Tabletop Centrifuge at top speed for ten minutes. The lower, amber, aqueous/methanol layer were then filtered through 25 millimeter, 0.45 micrometer nylon Acrodisc syringe filters from Gelman into 4 milliliter autosampler vials and tightly capped with polytetrafluorothylene lined septum in open-top screw caps. These samples were then analyzed using high pressure liquid chromatography for glabridin and/or glycyrrhizic and 18β-glycyrrhetinic acid, and were quantitated against a 4-point linear curve prepared by spiking approximately 2.7 grams unchewed samples of Wrigley Extra Sugarfree Peppermint gum with known levels of purified glabridin, glycyrrhizic acid monoammonium salt and 18β-glycyrrhetinicacid.
For the analysis of the gum bolus, both chewed and unchewed, a Polytron Homogenizer, described above was used. The gum sample was placed in a heavy wall glass tube. Internal standard ([…]) ethyl acetate ([…]) and water ([…]) were added. The sample was homogenized for approximately 30 seconds, or until no particles could be seen. The tubes were then centrifuged for 10 minutes on a clinical centrifuge at maximum speed. The supernatant was injected directly onto the gas chromatograph. The oven program was modified to allow resolution of ROF1 components from those of the peppermint flavoring. The gas chromatograph was calibrated using a three point standard curve to quantify the following components: menthol (flavor); geraniol (oil geraniol); cedrene, thujopsene (RC1); pinene, cineol, camphor, bornyl acetate (ROF1). The initial temperature was decreased from 140° C. to 100° C. The temperature gradient was changed from 10° C./minute to 4° C./minute. The split ratio was 50:1, and injection volume was 1 μL as per the method. A cleanup gradient was run every fifth sample as described previously.
A recovery study was performed in triplicate using blank Wrigley's Peppermint Gum (chewed and unchewed) spiked with stand and solution. Recovery was calculated relative to a direct standard consisting of spike solution without sample matrix.

[2] = for Above MIC in Saliva (Y/N): concentration in saliva at any time above MIC relative to Porphyromonas gingivalis
Description: (§11) Ten volunteers chewed 2.7 grams samples of each gum formulation and provided saliva samples at intervals and the gum bolus at the end of the 25 minute chewing period. High pressure liquid chromatography and gas chromatography were used to analyze the gum bolus and saliva non-volatile and volatile components, respectively.
(§12) Saliva samples were collected from each of the individuals prior to chewing 2.7 grams of gum, and at 1.0, 2.5, 5.0, 10.0, and 25.0 minutes while chewing the gum. The saliva samples were refrigerated until analysis. The gum bolus that remained after 25 minutes was saved and extracted immediately or stored refrigerated until extraction for analysis.
(§13) Samples were Vortex-mixed in Multi-tube vortex mixer for one minute and then centrifuged at top speed in clinical centrifuge for two minutes. Supernatants were carefully transferred to 1 milliliter glass shell vials and capped. Analysis was carried out either by isocratic elution for glabridin-only samples, or gradient elution for the samples containing the glycyrrhizic and 18β-glycyrrhetinic acids using high pressure liquid chromatography. Glabridin concentrations were converted to GLY concentrations by taking the weight percent glabridin in GLY to be 2.74 percent.
(§14) The calibration curve was prepared using spiked blank saliva.
(§15) For saliva, the essential oils of menthol, cedarwood oil, geraniol and Rosmarinus officianalis were determined by capillary gas chromatography. The split ratio was 25:1. The injection volume was 2 μL. Four hundred μL of saliva was extracted from the 1 milliliter of ethyl acetate containing an internal standard (hexadecane) in 1.5 milliliter Eppendorf tubes. After centrifugation, the organic layer was injected directly into the Hewlett-Packard 6890 gas chromatograph. […] For this reason, only the samples from 0 to 10 minutes were analyzed. A cleanup gradient was run from 190 to 300° C. every fifth sample to remove less volatile interferences from the column.

clinical = settings: human, in vivo
Description: as §11, §12, §13, §14, §15

Porphyromonas gingivalis = assay: MIC of each agent used in Example 5; assay type: cell-based; settings: read-out: MIC relative to Porphyromonas gingivalis used in Example 5
Description: The MIC Range was determined against a standard panel of five organisms that included Actinomyces viscosus, Fusobacterium nucleatum, Porphyromonas gingivalis, Streptococcus mutans, and Stretococcus sanguis. The starting dilution was 0.1 percent in methanol. The MIC used in this Example 5 was the MIC for each agent relative to Porphyromonas gingivalis.

[3] = tested on: Porphyromonas gingivalis (PG); assay: MIC of agents alone, in pairs and in three-agent combination (Example 2); assay type: cell-based, Porphyromonas gingivalis ATCC 33277
Text: (§1) In addition, the example describes how the MIC of antimicrobial agents in the combinations are reduced compared to the MIC of those antimicrobial agents alone and the MIC of those agents in various pairings. Numerous combinations of the antimicrobial agents described herein were combined to form combinations comprising three antimicrobial agents or triplets. Each of the formed triplets included either cedarwood oil or berberine hydrochloride.
(§2) The protocol used was a variation of the procedure described above in Example 1. The assay was carried out in the two-dimensional array of a 96-well plate. In order to evaluate three agents, two of the agents were paired against the third agent. For example, varying concentrations of antimicrobial agent A plus antimicrobial agent B versus varying concentrations of antimicrobial agent C were evaluated on one 96-well plate. The procedure was repeated with the other two possible pairings, i.e., A+C with B, and B+C with A. Accordingly, each triplet required three assays in order to assess each of the three possible pairings.
(§3) The bacterial innoculum was prepared as described in Example 1.
(§4) A sterile polystyrene 96-well plate was used to dilute the antimicrobial agents A, B and C. Using aseptic technique, 100 microliters of distilled water was placed in each test well. The dilution scheme was separated into two parts. First, the dilution of the combined agents A and B and then second, the dilution of agent C. A dilution of agents A and B was accomplished by placing 50 microliters of stock solution for agent A in the first well of each column. Next, 50 microliters of stock solution for agent B was added to each of the first wells of each column. Accordingly, the first well of each column included 50 microliters of stock solution for agent A and 50 microliters of stock solution for agent B. 100 microliters from the first row in each column was then transferred to the next well in the column and so on down the column. Each transfer was a one-half dilution of the preceding concentration.
(§5) The dilution of antimicrobial agent C was accomplished by adding 100 microliters of agent C stock solution to the first well of each row. 100 microliters from the first well in each row was then transferred to the next well and so on across the row of test wells. Each transfer was a one-half dilution of the preceding concentration. FIG. 1 is a schematic illustration of the concentrations of antimicrobial agents A, B and C derived from the dilution scheme described above. […] The concentration of agent C decreases across a row from left to right. […]
(§6) The 96-well plate was then incubated under conditions that varied by microorganism. […] The plate was then read for microbial growth with a spectrophotometer by optical density. […]

[4] = tested on: Fusobacterium nucleatum (FN); assay: as above; assay type: cell-based, Fusobacterium nucleatum ATCC 10933
Text: as §1, §2, §3, §4, §5, §6

[5] = tested on: Campylobacter rectus (CR); assay: as above; assay type: cell-based; settings: read-out: MIC, individual agent alone
Text: as §1, §2, §3
A sterile polystyrene 96-well plate was used to dilute the antimicrobial agents A, B and C. […]
as §6

[6] = tested on: Streptococcus sanguis (SS); assay: as above; assay type: cell-based, Streptococcus sanguis ATCC 49295; settings: agent used alone
Text: as §1, §2, §3
A sterile polystyrene 96-well plate was used to dilute the antimicrobial agents A, B and C. Using aseptic technique, 100 microliters of distilled water was placed in each test well. The dilution scheme was separated into two parts. First, the dilution of the combined agents A and B and then second, the dilution of agent C. A dilution of agents A and B was accomplished by placing 50 microliters of stock solution for agent A in the first well of each column. Next, 50 microliters of stock solution for agent B was added to each of the first wells of each column. […]
as §6

[7] = tested on: Streptococcus mutans (SM); assay: as above; assay type: cell-based, Streptococcus mutans ATCC 25175; settings: agent used alone
Text: as §1, §2, §3, §4, §5, §6

[8] = tested on: Actinomyces viscosus (AV); assay: as above; assay type: cell-based, Actinomyces viscosus ATCC 19246; settings: agent used alone
Text: as §1, §2, §3, §4, §5, §6

[9] = tested on: Porphyromonas gingivalis (PG); assay: MIC of agents alone and in two-agent combination (Example 1); assay type: cell-based, Porphyromonas gingivalis ATCC 33277; settings: concentration of TB1 (agent A)
Description: (§7) The following example illustrates how the MIC of individual antimicrobial agents that are combined were determined and also illustrates how the MIC of the antimicrobial agents in combination were determined.
(§8) A microtiter plate was used to dilute the antimicrobial agents to varying concentrations in order to determine the MIC of those antimicrobial agents alone and the MIC of the agents when combined.
(§9) A bacterial culture was incubated at 37° C. Prior to the dilution of the antimicrobial agents as described below, the bacterial culture was spun down at 2,000 rpm into a pellet and resuspended in a solution of buffered phosphate. The innoculum was normalized with a spectrophotometer to an optical density at 550 nanometers of between 0.180-0.220 (equivalent to 5.0×10^7 colony forming units, CFU per milliliter). The innoculum was set aside until the completion of the antimicrobial agent dilution. […]
(§10) Following 48 hours of incubation, the incubated plate was read for microbial growth with a spectrophotometer by optical density (OD). The well containing the lowest dilution achievable for each agent with a spectrophotometer reading below 0.05 OD (i.e., no detectable microbial growth) was considered representative for the combination. The MIC for each agent in the combination was determined by accounting for the starting stock solution concentration and the resulting dilutions in the 96-well plate. […]

[10] = tested on: Actinomyces viscosus (AV); assay: as above; assay type: cell-based, Actinomyces viscosus ATCC 19246; settings: concentration of TB1 (agent A)
Description: as §7, §8, §9, §10

[11] = tested on: Fusobacterium nucleatum (FN); assay: as above; assay type: cell-based, Fusobacterium nucleatum ATCC 10933; settings: concentration of TB1 (agent A)
Description: as §7, §8, §9, §10

[12] = tested on: Streptococcus mutans (SM); assay: as above; assay type: cell-based, Streptococcus mutans ATCC 25175; settings: concentration of TB1 (agent A)
Description: as §7, §8, §9, §10

[13] = tested on: Streptococcus sanguis (SS); assay: as above; assay type: cell-based, Streptococcus sanguis ATCC 49295; settings: concentration of TB1 (agent A)
Description: as §7, §8, §9, §10

## CC1(C)[C@@H](O)CC[C@]2(C)[C@H]3C(=O)C=C4[C@@H]5C[C@@](C)(C(=O)O)CC[C@]5(C)CC[C@@]4(C)[C@]3(C)CC[C@@H]12 [GA, 18β-Glycyrrhetinic acid]
[1]; in vivo
  Release from Chewed Gum Bolus after 25 min: 15%
[2]
  Above MIC in Saliva (Y/N): No
clinical
  concentration at 1 min: 1.8 µg/mL
  concentration at 2.5 min: 1.5 µg/mL
  concentration at 5 min: 1.6 µg/mL
  concentration at 10 min: 1.8 µg/mL
  concentration at 25 min: 2.3 µg/mL

## CC1CCC(C(C)C)C(O)C1 (stereo not shown) [Menthol]
Porphyromonas gingivalis
  MIC: 125 µg/mL
[1]; 2.7 g peppermint gum chewed 25 min, ten volunteers
  Release from Chewed Gum Bolus after 25 min: 50%
[2]; 25 minutes, GLY formulations 1,3-6, RC1 5,6, GRA 4-6, GA, GR #6, menthol 1-6
  Concentration of Antimicrobial Agent in Saliva: below detection limits
[2]
  Above MIC in Saliva (Y/N): No
clinical
  concentration at 1 min: 25 µg/mL
  concentration at 2.5 min: 22 µg/mL
  concentration at 5 min: 24 µg/mL
  concentration at 10 min: 24 µg/mL

## COc1ccc2cc3[n+](cc2c1OC)CCc1cc2c(cc1-3)OCO2 [BX1, 5,6-dihydro-9,10-dimethoxybenzo[g]-1,3-benzodioxolo [5,6-a] quinolizinium]
[3]; PG, agent used alone
  MIC, individual agent alone: 15.6 µg/mL
[3]; Porphyromonas gingivalis, read-out: MIC, individual agent alone
  MIC: 15.6 µg/mL
[4]; FN, agent used alone
  MIC, individual agent alone: 62.5 µg/mL
[4]; Fusobacterium nucleatum, read-out: MIC, individual agent alone
  MIC: 62.5 µg/mL
[5]
  MIC: 125 µg/mL
[6]; SS
  MIC, individual agent alone: 62.5 µg/mL
[6]; Streptococcus, read-out: MIC, individual agent alone, SS
  MIC: 31.3 µg/mL
[7]; SM
  MIC, individual agent alone: 31.3 µg/mL and 62.5 µg/mL
[7]; Streptococcus mutans, read-out: MIC, individual agent alone, SM
  MIC: 31.3 µg/mL
[8]; AV
  MIC, individual agent alone: 62.5 µg/mL
[8]; Actinomyces viscosus, read-out: MIC, individual agent alone, AV
  MIC: 31.3 µg/mL

## N-cocamidopropyl-dimethylglycine [TB1]
[9]
  MIC of Cocamidopropyl Dimethylglycine alone and when combined with Agent B: 16.8 µg/mL
[10]
  MIC of Cocamidopropyl Dimethylglycine alone and when combined with Agent B: 28.9 µg/mL
[11]
  MIC of Cocamidopropyl Dimethylglycine alone and when combined with Agent B: 45.4 µg/mL
[12]
  MIC of Cocamidopropyl Dimethylglycine alone and when combined with Agent B: 22.8 µg/mL
[13]
  MIC of Cocamidopropyl Dimethylglycine alone and when combined with Agent B: 30.2 µg/mL

## CC1(C)[C@@H](O[C@H]2O[C@H](C(=O)O)[C@@H](O)[C@H](O)[C@H]2O[C@@H]2O[C@H](C(=O)O)[C@@H](O)[C@H](O)[C@H]2O)CC[C@]2(C)[C@H]3C(=O)C=C4[C@@H]5C[C@@](C)(C(=O)O)CC[C@]5(C)CC[C@@]4(C)[C@]3(C)CC[C@@H]12 [GR, Glycyrrhizic Acid, Monoammonium salt]
[1]; in vivo
  Release from Chewed Gum Bolus after 25 min: 85%
[2]
  Above MIC in Saliva (Y/N): Yes
[2]; human, in vivo
  Rate of release from gum: released from a gum base less quickly and over a longer period of time
[2]; in words, released from a gum composition
  Maintenance of concentration in oral cavity above MIC: maintain a concentration in the oral cavity at a level above the MIC
clinical
  concentration at 1 min: 3100 µg/mL
  concentration at 2.5 min: 111 µg/mL
  concentration at 5 min: 55 µg/mL
  concentration at 10 min: 30 µg/mL
  concentration at 25 min: 10 µg/mL
